Test results: ChEMBL document CHEMBL3232720, “Boseongazepines A-C, pyrrolobenzodiazepine derivatives from a Streptomyces sp. 11A057” (Bioorg Med Chem Lett, 2014)
Calls of active or inactive are those of the source. No cut-off for these calls is given here.

What follows are compounds tested on Jurkat (assay: Growth inhibition of human Jurkat cells after 96 hrs by EZ-CyTox cell viability assay). Settings: not given.
Type: functional, cell-based

Row | Structure (SMILES) | IC50 [µM]
1 | C/C=C1\C[C@H]2C(=O)Nc3c(OC)cccc3C(=O)N2C1 | > 100
2 | C/C=C1\C[C@H]2CNc3c(OC)cccc3C(=O)N2C1 [USABAMYCIN B] | 6.26
3 | C/C=C1\C[C@H]2CNc3ccccc3C(=O)N2C1 | 23.9
4 | COc1cccc2c1NC[C@@H]1CC(C(C)=O)=CN1C2=O | 72

These compounds were tested on Salinivibrio costicola (assay: Antimicrobial activity against Vibrio costicola assessed as growth inhibition at 50 ug/disk after 48 hrs by paper disk method). Settings: not given.
Type: functional, organism-based

Row | Structure (SMILES) | growth inhibition (GI)
5 | C/C=C1\C[C@H]2C(=O)Nc3c(OC)cccc3C(=O)N2C1 | inactive
6 | C/C=C1\C[C@H]2CNc3c(OC)cccc3C(=O)N2C1 [USABAMYCIN B] | inactive
7 | C/C=C1\C[C@H]2CNc3ccccc3C(=O)N2C1 | inactive
8 | COc1cccc2c1NC[C@@H]1CC(C(C)=O)=CN1C2=O | inactive

The compounds below were run on Escherichia coli (assay: Antimicrobial activity against Escherichia coli assessed as growth inhibition at 50 ug/disk after 48 hrs by paper disk method). Settings: not given.
Type: functional, organism-based

Row | Structure (SMILES) | growth inhibition (GI)
9 | C/C=C1\C[C@H]2C(=O)Nc3c(OC)cccc3C(=O)N2C1 | inactive
10 | C/C=C1\C[C@H]2CNc3c(OC)cccc3C(=O)N2C1 [USABAMYCIN B] | inactive
11 | C/C=C1\C[C@H]2CNc3ccccc3C(=O)N2C1 | inactive
12 | COc1cccc2c1NC[C@@H]1CC(C(C)=O)=CN1C2=O | inactive

Each compound was assayed on Candida albicans (assay: Antimicrobial activity against Candida albicans assessed as growth inhibition at 50 ug/disk after 48 hrs by paper disk method). Settings: not given.
Type: functional, organism-based

Row | Structure (SMILES) | growth inhibition (GI)
13 | C/C=C1\C[C@H]2C(=O)Nc3c(OC)cccc3C(=O)N2C1 | inactive
14 | C/C=C1\C[C@H]2CNc3c(OC)cccc3C(=O)N2C1 [USABAMYCIN B] | inactive
15 | C/C=C1\C[C@H]2CNc3ccccc3C(=O)N2C1 | inactive
16 | COc1cccc2c1NC[C@@H]1CC(C(C)=O)=CN1C2=O | inactive

The compounds below were run on HepG2 (assay: Growth inhibition of human HepG2 cells after 96 hrs by EZ-CyTox cell viability assay). Settings: HepG2, 96 h.
Type: functional, cell-based

Row | Structure (SMILES) | IC50 [µM]
17 | C/C=C1\C[C@H]2C(=O)Nc3c(OC)cccc3C(=O)N2C1 | > 100
18 | C/C=C1\C[C@H]2CNc3c(OC)cccc3C(=O)N2C1 [USABAMYCIN B] | 10.6
19 | C/C=C1\C[C@H]2CNc3ccccc3C(=O)N2C1 | 68.9
20 | COc1cccc2c1NC[C@@H]1CC(C(C)=O)=CN1C2=O | 56.1

What follows are compounds tested on Bacillus subtilis (assay: Antimicrobial activity against Bacillus subtilis assessed as growth inhibition at 50 ug/disk after 48 hrs by paper disk method). Settings: not given.
Type: functional, organism-based

Row | Structure (SMILES) | growth inhibition (GI)
21 | C/C=C1\C[C@H]2C(=O)Nc3c(OC)cccc3C(=O)N2C1 | inactive
22 | C/C=C1\C[C@H]2CNc3c(OC)cccc3C(=O)N2C1 [USABAMYCIN B] | inactive
23 | C/C=C1\C[C@H]2CNc3ccccc3C(=O)N2C1 | inactive
24 | COc1cccc2c1NC[C@@H]1CC(C(C)=O)=CN1C2=O | inactive

Each compound was assayed on Aspergillus fumigatus (assay: Antimicrobial activity against Aspergillus fumigatus assessed as growth inhibition at 50 ug/disk after 48 hrs by paper disk method). Settings: not given.
Type: functional, organism-based

Row | Structure (SMILES) | growth inhibition (GI)
25 | C/C=C1\C[C@H]2C(=O)Nc3c(OC)cccc3C(=O)N2C1 | inactive
26 | C/C=C1\C[C@H]2CNc3c(OC)cccc3C(=O)N2C1 [USABAMYCIN B] | inactive
27 | C/C=C1\C[C@H]2CNc3ccccc3C(=O)N2C1 | inactive
28 | COc1cccc2c1NC[C@@H]1CC(C(C)=O)=CN1C2=O | inactive

Each compound was assayed on Staphylococcus aureus (assay: Antimicrobial activity against Staphylococcus aureus assessed as growth inhibition at 50 ug/disk after 48 hrs by paper disk method). Settings: not given.
Type: functional, organism-based

Row | Structure (SMILES) | growth inhibition (GI)
29 | C/C=C1\C[C@H]2C(=O)Nc3c(OC)cccc3C(=O)N2C1 | inactive
30 | C/C=C1\C[C@H]2CNc3c(OC)cccc3C(=O)N2C1 [USABAMYCIN B] | inactive
31 | C/C=C1\C[C@H]2CNc3ccccc3C(=O)N2C1 | inactive
32 | COc1cccc2c1NC[C@@H]1CC(C(C)=O)=CN1C2=O | inactive

Each compound was assayed on K562 (assay: Growth inhibition of human K562 cells after 96 hrs by EZ-CyTox cell viability assay). Settings: K562, 96 h.
Type: functional, cell-based

Row | Structure (SMILES) | IC50 [µM]
33 | C/C=C1\C[C@H]2C(=O)Nc3c(OC)cccc3C(=O)N2C1 | > 100
34 | C/C=C1\C[C@H]2CNc3c(OC)cccc3C(=O)N2C1 [USABAMYCIN B] | 10.1
35 | C/C=C1\C[C@H]2CNc3ccccc3C(=O)N2C1 | 58.8
36 | COc1cccc2c1NC[C@@H]1CC(C(C)=O)=CN1C2=O | > 100

Each compound was assayed on HL-60 (assay: Growth inhibition of human HL60 cells after 96 hrs by EZ-CyTox cell viability assay). Settings: HL-60, 96 h.
Type: functional, cell-based

Row | Structure (SMILES) | IC50 [µM]
37 | C/C=C1\C[C@H]2C(=O)Nc3c(OC)cccc3C(=O)N2C1 | > 100
38 | C/C=C1\C[C@H]2CNc3c(OC)cccc3C(=O)N2C1 [USABAMYCIN B] | 13.5
39 | C/C=C1\C[C@H]2CNc3ccccc3C(=O)N2C1 | 64.5
40 | COc1cccc2c1NC[C@@H]1CC(C(C)=O)=CN1C2=O | > 100
